Experimental data published in patent publication US20250228873A1, “C25 R AND S ISOMERS OF AMINOSTEROLS AND METHODS OF MAKING AND USING THE SAME” (Enterin, Inc., priority 2022, published 2025).
pIC50: −log10 of the molar value. Where two headings read alike, the source gives them in different places.

Assays:
PTPN11/SHP2-FL(E76K) = target: T1, PTPN11/SHP2-FL(E76K) (Homo sapiens, UniProt Q06124, E76K); experiment: Phosphatase panel, DiFMUP assay, E76K mutant
T1 sequence (Q06124 2-597 isoform Q06124-1 E76K): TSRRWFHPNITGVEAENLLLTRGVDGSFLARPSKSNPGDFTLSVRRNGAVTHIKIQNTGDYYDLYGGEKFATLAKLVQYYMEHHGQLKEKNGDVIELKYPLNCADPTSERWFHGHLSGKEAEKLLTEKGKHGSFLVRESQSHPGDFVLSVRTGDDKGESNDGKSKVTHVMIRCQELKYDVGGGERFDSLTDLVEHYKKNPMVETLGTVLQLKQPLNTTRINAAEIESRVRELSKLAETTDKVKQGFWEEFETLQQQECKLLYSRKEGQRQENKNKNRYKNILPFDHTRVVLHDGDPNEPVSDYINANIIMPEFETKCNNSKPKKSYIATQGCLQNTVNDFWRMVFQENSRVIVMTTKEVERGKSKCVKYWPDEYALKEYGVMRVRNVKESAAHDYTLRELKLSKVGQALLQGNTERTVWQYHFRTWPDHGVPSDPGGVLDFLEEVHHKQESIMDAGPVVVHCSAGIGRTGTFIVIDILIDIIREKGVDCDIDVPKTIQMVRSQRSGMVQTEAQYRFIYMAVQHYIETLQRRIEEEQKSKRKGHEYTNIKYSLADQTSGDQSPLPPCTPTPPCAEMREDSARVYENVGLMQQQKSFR

PTPN7/LC-PTP = target: T2, PTPN7/LC-PTP (Homo sapiens, UniProt P35236); experiment: Phosphatase panel, DiFMUP fluorescence assay; assay type: biochemical; details: for IC50: Table 5C, read-out: Compound IC50 (M) PTPN7/LC-PTP; for pIC50: read-out: inhibitory activity PTPN7/LC-PTP
T2 construct: purchased Recation Biology Inc
T2 sequence (P35236 1-360): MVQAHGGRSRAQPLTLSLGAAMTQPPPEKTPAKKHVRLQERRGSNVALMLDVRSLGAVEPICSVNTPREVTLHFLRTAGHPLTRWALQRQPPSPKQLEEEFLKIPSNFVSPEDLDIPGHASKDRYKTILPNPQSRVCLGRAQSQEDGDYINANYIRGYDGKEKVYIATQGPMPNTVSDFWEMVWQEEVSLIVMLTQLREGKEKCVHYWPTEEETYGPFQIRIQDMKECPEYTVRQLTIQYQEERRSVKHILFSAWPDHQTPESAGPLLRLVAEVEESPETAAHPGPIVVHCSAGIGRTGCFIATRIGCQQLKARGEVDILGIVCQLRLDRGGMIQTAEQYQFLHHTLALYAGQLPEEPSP

PTPN11/SHP2 = target: T3, PTPN11/SHP2 (Homo sapiens, UniProt Q06124); experiment: Phosphatase panel, DiFMUP fluorescence assay; assay type: biochemical; details: read-out: inhibitory activity PTPN11/SHP
T3 sequence (Q06124 1-593): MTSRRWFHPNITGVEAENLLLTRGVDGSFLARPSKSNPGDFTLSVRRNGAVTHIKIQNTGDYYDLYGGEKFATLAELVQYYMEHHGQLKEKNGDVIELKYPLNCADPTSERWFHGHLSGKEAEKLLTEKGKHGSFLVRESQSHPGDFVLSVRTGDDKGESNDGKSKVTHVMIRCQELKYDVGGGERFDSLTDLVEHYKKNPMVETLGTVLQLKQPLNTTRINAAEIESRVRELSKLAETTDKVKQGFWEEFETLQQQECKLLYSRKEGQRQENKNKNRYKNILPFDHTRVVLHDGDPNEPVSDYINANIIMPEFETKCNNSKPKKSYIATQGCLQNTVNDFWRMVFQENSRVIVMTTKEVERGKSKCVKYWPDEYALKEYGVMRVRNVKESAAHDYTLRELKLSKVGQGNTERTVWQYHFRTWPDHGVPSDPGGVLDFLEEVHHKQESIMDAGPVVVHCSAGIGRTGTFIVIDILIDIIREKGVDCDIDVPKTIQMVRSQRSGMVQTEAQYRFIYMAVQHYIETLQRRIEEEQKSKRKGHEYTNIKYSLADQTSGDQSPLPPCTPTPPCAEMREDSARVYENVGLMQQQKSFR

PP1B = target: T4, PP1B (Homo sapiens, UniProt P62140); experiment: Phosphatase panel, DiFMUP fluorescence assay; assay type: biochemical; details: for pIC50: read-out: inhibitory activity PP1B
T4 construct: purchased Recation Biology Inc
T4 sequence (P62140 whole entry): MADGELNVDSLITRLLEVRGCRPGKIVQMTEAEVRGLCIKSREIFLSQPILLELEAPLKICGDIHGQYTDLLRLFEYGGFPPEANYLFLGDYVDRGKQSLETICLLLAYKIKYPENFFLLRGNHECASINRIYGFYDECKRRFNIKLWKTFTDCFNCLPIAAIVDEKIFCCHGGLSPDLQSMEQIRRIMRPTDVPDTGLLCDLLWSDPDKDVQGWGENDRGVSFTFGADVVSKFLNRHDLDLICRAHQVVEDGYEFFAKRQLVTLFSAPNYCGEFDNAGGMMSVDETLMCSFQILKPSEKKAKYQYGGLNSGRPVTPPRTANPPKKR

PTPN1/PTP1B-CD = target: T5, PTPN1/PTP1B-CD (Homo sapiens, UniProt P18031); experiment: Phosphatase panel, DiFMUP fluorescence assay; assay type: biochemical; details: for pIC50: read-out: inhibitory activity PTPN1/PTP1B-CD
T5 construct: purchased Recation Biology Inc
T5 sequence (P18031 3-277 limits assumed): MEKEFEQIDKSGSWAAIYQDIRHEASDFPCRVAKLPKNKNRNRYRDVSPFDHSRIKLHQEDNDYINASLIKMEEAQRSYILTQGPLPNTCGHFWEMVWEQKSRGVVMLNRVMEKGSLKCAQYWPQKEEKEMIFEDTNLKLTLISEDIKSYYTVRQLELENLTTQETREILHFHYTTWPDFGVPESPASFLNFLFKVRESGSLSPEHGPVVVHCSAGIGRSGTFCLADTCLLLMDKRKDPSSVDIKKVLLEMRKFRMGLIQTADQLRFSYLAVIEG

PP1A = target: T6, PP1A (Homo sapiens, UniProt P62136); experiment: Phosphatase panel, DiFMUP fluorescence assay; assay type: biochemical; details: for pIC50: read-out: inhibitory activity PP1A
T6 construct: purchased Recation Biology Inc
T6 sequence (P62136 whole entry): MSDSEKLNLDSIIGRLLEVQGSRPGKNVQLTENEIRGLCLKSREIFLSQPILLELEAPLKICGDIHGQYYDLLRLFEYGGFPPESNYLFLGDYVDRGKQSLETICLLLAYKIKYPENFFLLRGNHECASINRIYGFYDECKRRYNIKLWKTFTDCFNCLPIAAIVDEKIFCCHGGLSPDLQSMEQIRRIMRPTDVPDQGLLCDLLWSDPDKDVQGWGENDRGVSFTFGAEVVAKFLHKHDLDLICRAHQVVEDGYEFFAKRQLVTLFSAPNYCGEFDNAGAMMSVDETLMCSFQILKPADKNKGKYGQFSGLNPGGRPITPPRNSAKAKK

PTPN2/TC-PTP = target: T7, PTPN2/TC-PTP (Homo sapiens, UniProt P17706); experiment: Phosphatase panel, DiFMUP fluorescence assay; assay type: biochemical; details: for pIC50: read-out: inhibitory activity PTPN2/TC-PTP
T7 construct: purchased Recation Biology Inc
T7 sequence (P17706 1-415): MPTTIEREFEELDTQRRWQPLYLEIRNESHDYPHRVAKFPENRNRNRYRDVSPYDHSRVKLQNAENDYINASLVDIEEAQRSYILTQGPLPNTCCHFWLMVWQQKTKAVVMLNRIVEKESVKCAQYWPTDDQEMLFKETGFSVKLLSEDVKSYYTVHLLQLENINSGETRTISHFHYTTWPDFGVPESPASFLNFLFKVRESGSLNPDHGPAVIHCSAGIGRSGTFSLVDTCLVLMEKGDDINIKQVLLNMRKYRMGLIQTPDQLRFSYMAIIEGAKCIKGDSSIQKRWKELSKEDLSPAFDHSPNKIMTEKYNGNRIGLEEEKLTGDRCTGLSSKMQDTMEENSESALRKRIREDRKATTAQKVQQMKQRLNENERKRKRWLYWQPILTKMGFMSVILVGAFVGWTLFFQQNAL

PTPN6/SHP1 = target: T8, PTPN6/SHP1 (Homo sapiens, UniProt P29350); experiment: Phosphatase panel, DiFMUP fluorescence assay; assay type: biochemical; details: for pIC50: read-out: inhibitory activity PTPN6/SHP1
T8 construct: purchased Recation Biology Inc
T8 sequence (P29350 whole entry): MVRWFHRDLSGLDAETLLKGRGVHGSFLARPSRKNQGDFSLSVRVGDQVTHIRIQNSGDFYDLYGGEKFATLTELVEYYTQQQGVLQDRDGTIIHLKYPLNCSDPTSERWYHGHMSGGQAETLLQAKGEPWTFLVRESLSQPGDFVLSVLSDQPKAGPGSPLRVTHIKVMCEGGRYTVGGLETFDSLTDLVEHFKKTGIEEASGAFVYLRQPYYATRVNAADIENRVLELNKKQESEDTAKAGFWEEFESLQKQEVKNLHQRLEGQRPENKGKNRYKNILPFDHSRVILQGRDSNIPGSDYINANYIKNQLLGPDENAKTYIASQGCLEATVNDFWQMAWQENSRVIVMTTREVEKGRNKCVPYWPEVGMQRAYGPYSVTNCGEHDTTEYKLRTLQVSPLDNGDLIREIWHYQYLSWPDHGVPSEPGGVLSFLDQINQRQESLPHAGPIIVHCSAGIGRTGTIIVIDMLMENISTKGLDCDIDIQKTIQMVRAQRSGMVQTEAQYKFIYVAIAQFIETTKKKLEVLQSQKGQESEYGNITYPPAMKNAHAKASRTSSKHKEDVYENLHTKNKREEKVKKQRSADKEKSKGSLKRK

Compound | pIC50 (PTPN11/SHP2-FL(E76K)) | IC50 (PTPN7/LC-PTP) [M] | pIC50 (PTPN11/SHP2; Table 19A) | pIC50 (PP1B; Table 19A) | pIC50 (PTPN1/PTP1B-CD; Table 19B) | pIC50 (PTPN7/LC-PTP; Table 19B) | pIC50 (PP1A; Table 19A) | pIC50 (PTPN2/TC-PTP; Table 19B) | pIC50 (PTPN6/SHP1; Table 19A) | other results
CC(C)[C@@H](CC[C@@H](C)[C@H]1CC[C@H]2[C@@H]3[C@H](O)C[C@H]4C[C@@H](NCCCNCCCCNCCCN)CC[C@]4(C)[C@H]3CC[C@]12C)OS(=O)(=O)O (single isomer, unassigned) [ENT-02 (MSI-1436), trodusquemine] | 6.53 | 1.65e-06 | – | – | – | – | – | – | – | –
CC(CCC[C@@H](C)[C@H]1CCC2C3C(CC[C@@]21C)[C@@]1(C)CC[C@H](NCCCNCCCCNCCCN)C[C@@H]1C[C@H]3O)C(=O)O (single isomer, unassigned) [ENT-03] | 6.53 | 6.34e-07 | 5.30 | < 4.00 | 6.93 | 6.20 | < 4.00 | < 4.00 | < 4.00 | activity at PP1B (PP1B): inactive; IC50 (PP1B; Table 5B, read-out: Compound IC50 (M) PP1B): > 0.0001 M; IC50 (PTPN1/PTP1B-CD; Table 5C, read-out: Compound IC50 (M) PTPN1/PTP1B-CD): 1.17e-07 M; activity at PP1A (PP1A): inactive; IC50 (PP1A; Table 5B, read-out: Compound IC50 (M) PP1A): > 0.0001 M; activity at PTPN2 (PTPN2/TC-PTP): inactive; IC50 (PTPN2/TC-PTP; Table 5C, read-out: Compound IC50 (M) PTPN2/TC-PTP): > 0.0001 M; activity at PTPN6 (PTPN6/SHP1): inactive; IC50 (PTPN6/SHP1; Table 5B, read-out: Compound IC50 (M) PTPN6/SHP1): > 0.0001 M
CC(CCC[C@@H](C)[C@H]1CCC2C3C(CC(O)[C@@]21C)[C@@]1(C)CC[C@H](NCCCNCCCCN)C[C@@H]1C[C@H]3O)C(=O)O (single isomer, unassigned) [ENT-05] | 7.37 | – | – | – | – | – | – | – | – | pIC50 (PTPN11/SHP2; Table 18A): 4.74; pIC50 (PP1B; Table 18A): < 4.00; pIC50 (PTPN1/PTP1B-CD; Table 18B): 5.59; pIC50 (PTPN7/LC-PTP; Table 18B): 5.40; pIC50 (PP1A; Table 18A): < 4.00; pIC50 (PTPN2/TC-PTP; Table 18B): < 4.00; pIC50 (PTPN6/SHP1; Table 18A): < 4.00
CC(CCC[C@@H](C)[C@H]1CCC2C3C(CC[C@@]21C)[C@@]1(C)CC[C@H](NCCCNCCCCN)C[C@@H]1C[C@H]3O)C(=O)O (single isomer, unassigned) [ENT-06] | 6.46 | – | 5.46 | < 4.00 | 6.83 | 5.98 | < 4.00 | < 4.00 | < 4.00 | –
